Measured values from US20120184769A1, “METHOD FOR ISOLATING […]-N,N-DIACETONITRILE” (BASF SE, priority 2009, published 2012).

Assay: Solubility of MGDN in water or aqueous ammonium sulfate solution
Type: physicochemical

Q: For `CC(C#N)N(CC#N)CC#N` (stereo not drawn) [MGDN, methylglycinenitrile-N,N-diacetonitrile], which “dissolved MGDN in the aqueous solution (emulsion formed)” value (above about 60° C., emulsion of MGDN and its aqueous solution) is on record?
A: more than 5 % by weight

Q: And the “solubility of MGDN in water” value (at 10° C., in water or an aqueous ammonium sulfate solution)?
A: about 0.5 % by weight

Q: And the “solubility of MGDN in water” value (at around 60° C.)?
A: about 5 % by weight
